In patent US4620930A, “Process for rapidly determining biological toxicity of wastewater” (priority 1985, dated 1986):
≈ marks a conversion by molar mass, not a printed value. Like-named read-outs stand apart in the source and are kept apart here.

Legend:
[1] = test system: PHENOBAC bacterial culture; assay: microbe, parasite or virus in culture; format: cell-based, PHENOBAC mutant bacteria containing Pseudomonas; conditions: for IC50: 20 min, read-out: concentration resulting in an inhibition of the bacteria of about 50%
Description: In the rapid toxicity test described herein the dried culture first undergoes rehydration and then respiration development when contacted with aqueous system containing organic material.
In carrying out the test process, a preselected amount of the dried bacterial culture is first charged to a preselected amount of a standardized substrate for the purpose of determining a standard of respiration or activity of the culture. […] Typically, the quantity of bacterial culture is selected to give a good rate of oxygen decline, e.g., a decline of 2-5 mg/liter oxygen over a twenty minute interval. For reference purposes from 5 to 15 grams of culture/500 ml. of sample solution will be sufficient. The standardized substrate used in the test procedure is […] or another standardized medium of known composition. […] During this period, this oxygen respiration activity is measured by measuring the dissolved oxygen content in the substrate. The dissolved oxygen content then is plotted as a function of time. The rate of decline of dissolved oxygen content in the substrate is ascertained at some preselected time where the rate of dissolved oxygen decline is substantial and where the residual oxygen in the sample of greater than 0.5 mg/l oxygen. With bacterial cultures of the type described, this preselected time can be within the range of 10 to 30 minutes. […] Although numerous methods can be used to ascertain the rate of decline of oxygen, the simplest is to determine that rate from a graph by taking the slope (y/x) of the curve at the preselected time.
The organic quality of sewage, in terms of organic content or toxic substance, is measured by repeating the exact same process, using the test sample in place of the standardized sample. In many instances, particularly where the test sample contains a substantial amount of toxic material or organic matter, the test sample may be diluted with distilled water to provide a more accurate measurement. This is done in those cases where the slope of the curve is small. In any event, the test substrate or wastewater to be tested is added to the test vessel containing the bacterial culture and the dissolved oxygen content measured as a function of time. The rate of decline in dissolved oxygen content for the test substrate or wastewater is then determined at the same preselected time utilized for the standard. This rate of decline is then compared to the rate of decline for the standardized substrate. The relative toxicity or inhibition of the test water versus the standardized substrate, can then be calculated by the equation: [formula]
A baseline standard was generated for a bacterial formulation sold under the trademark PHENOBAC by Polybac Corporation by first charging 350 ml of distilled water to a first vessel. The water was then saturated with oxygen by sealing the vessel which was half full of air and shaking it rapidly.

[2] = test system: PHENOBAC bacterial culture; assay: microbe, parasite or virus in culture; conditions: Pseudomonas, pH 7, read-out: percent inhibition, with prehydration
Procedure: A baseline standard was generated for a bacterial formulation sold under the trademark PHENOBAC by Polybac Corporation by first charging 350 ml of distilled water to a first vessel. The water was then saturated with oxygen by sealing the vessel which was half full of air and shaking it rapidly. The dissolved oxygen content of the sample was then measured to determine if the oxygen level exceeded 5.0 mg/l at a temperature of 20° C. (If the level was above 5.0 mg/l, it was assumed the sample was sufficiently saturated with oxygen to proceed.) After oxygen saturation, the water was charged to a second vessel containing 8 grams of the dried granular PHENOBAC mutant bacteria containing Pseudomonas and 0.6 grams of potassium bicarbonate. The latter acted to buffer the pH in the vessel to approximately 7. A dissolved oxygen probe was then inserted into the vessel and the contents of the vessel stirred while measuring the dissolved oxygen concentration in the vessel. Several measured data points were recorded in one to two minute intervals for a period of about 30 minutes. These values were plotted with dissolved oxygen in mg/liter represented on the ordinant and time (minute) plotted represented on the abscissa. The baseline standard curves are shown as Curves A and J on FIGS. 1 and 2 respectively.
A series of tests was conducted for the purpose of determining the relative toxicity of various phenolic solutions. The general test technique involved the utilization of test samples containing various known concentrations of toxic material, e.g., phenol. The test sample was buffered to a pH of 7 by the addition of sodium hydroxide or sulphuric acid. Measurement of pH using pH paper was found most convenient. Once the pH of the solution was at the appropriate level, the sample was then aerated by placing the sample in a vessel half full of air, sealing the vessel and shaking the vessel vigorously for several minutes. The oxygen saturated 350 ml. solution having a dissolved oxygen content greater than 5.0 mg/l was then introduced to a test vessel containing 8 grams of dried granular PHENOBAC bacterial culture and 0.5 g of sodium bicarbonate. The dissolved oxygen concentration in the closed sealed vessel was then measured and plotted for a series of phenol concentrations in FIG. 1 in the same manner as the baseline standard in Example 1 and also illustrated in FIG. 1. Each curve, B-G, is labeled with respect to the phenol concentration present during the test. Curve A represents the baseline standard. From these curves one can calculate the rate of decline in dissolved oxygen concentration observed at 20 minutes for each phenol concentration. The percent inhibition is then calculated from the various dissolved oxygen decline curves for each phenol concentration in FIG. 1 according to the equation: [formula]
As in Examples 1 and 2, the general technique for these tests involved pretreatment of the wastewater or test solution to achieve a pH of 7.0 and an oxygen saturation of at least 5.0 mg/l. However, prior to adding the test solution to the test vessel containing the dried PHENOBAC culture, the bacteria were allowed to rehydrate 10 minutes in clean water and then the test solution containing phenol was added to the test vessel. In this manner, the initial rehydration of the bacterial populations was carried out in the absence of the chemical being tested. This is the customary prior art procedure. After rehydration, the bacteria were then exposed to the test chemical and its effect on bacterial respiration evaluated.

[3] = Pseudomonas, pH 7, read-out: percent inhibition, preferred contact rehydration

Row | SMILES | concentration resulting in an inhibition of the bacteria of about 50% ([1]; from FIG. 3, rate of dissolved oxygen decline at 20 minutes versus baseline standard) | IC50 ([1]; Pseudomonas) | inhibition at 312 µg/mL [1, 3] | inhibition at 625 µg/mL [1, 3] | inhibition at 1250 µg/mL [1, 3] | inhibition at 2500 µg/mL [1, 3] | inhibition at 5000 µg/mL [1, 3] | inhibition at 10000 µg/mL [1, 3] | inhibition or sensitivity of the bacteria, direct contact rehydration compared with prehydration in water ([1]; rehydrated in direct contact with the test phenol solutions rather than in water first) | inhibition at 312 µg/mL [2] | inhibition at 625 µg/mL [2] | inhibition at 1250 µg/mL [2] | inhibition at 2500 µg/mL [2] | inhibition at 5000 µg/mL [2] | inhibition at 10000 µg/mL [2]
1 | [Cu+2] [copper, copper (+2) ion] | 29 mg/L |  |  |  |  |  |  |  |  |  |  |  |  |  | 
2 | C=O [formaldehyde] |  | ~140 µg/mL (≈ 4.66 mM) |  |  |  |  |  |  |  |  |  |  |  |  | 
3 | Oc1ccccc1 [phenol] |  | ~1600 µg/mL (≈ 17 mM) | 12% | 22% | 37% | 68% | 87% | 98% | greater inhibition or sensitivity | 10% | 17% | 33% | 57% | 80% | 93%
